Laboratory results as given in patent US10189841B2, “Purinones as ubiquitin-specific protease 1 inhibitors” (Forma Therapeutics, Inc., priority 2015, dated 2019).

Molecular target: USP1 (construct USP1 (I-785, GG670, 671AA)/UAF1 (I-677)-Flag) (Homo sapiens (Human), UniProt O94782, G670A/G671A)
Experiment: Ubiquitin-Rhodamine 110 assay for USP1 activity
Type: biochemical
Conditions: USP1/UAF1 25 pM, Ub-Rh110 25 nM, 30 min preincubation
Summary of the method: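 Ub-Rh110 (25 nM, ≪Km) cleavage read at ex 485/em 535 in Tris pH 8.0, CaCl2, GSH, Prionex, Triton X-100. The screen used 10 µM compound, 100 pM USP1/UAF1 and 45 min at RT.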

USP1 (construct USP1 (I-785, GG670, 671AA)/UAF1 (I-677)-Flag), sequence (O94782 whole entry G670A/G671A): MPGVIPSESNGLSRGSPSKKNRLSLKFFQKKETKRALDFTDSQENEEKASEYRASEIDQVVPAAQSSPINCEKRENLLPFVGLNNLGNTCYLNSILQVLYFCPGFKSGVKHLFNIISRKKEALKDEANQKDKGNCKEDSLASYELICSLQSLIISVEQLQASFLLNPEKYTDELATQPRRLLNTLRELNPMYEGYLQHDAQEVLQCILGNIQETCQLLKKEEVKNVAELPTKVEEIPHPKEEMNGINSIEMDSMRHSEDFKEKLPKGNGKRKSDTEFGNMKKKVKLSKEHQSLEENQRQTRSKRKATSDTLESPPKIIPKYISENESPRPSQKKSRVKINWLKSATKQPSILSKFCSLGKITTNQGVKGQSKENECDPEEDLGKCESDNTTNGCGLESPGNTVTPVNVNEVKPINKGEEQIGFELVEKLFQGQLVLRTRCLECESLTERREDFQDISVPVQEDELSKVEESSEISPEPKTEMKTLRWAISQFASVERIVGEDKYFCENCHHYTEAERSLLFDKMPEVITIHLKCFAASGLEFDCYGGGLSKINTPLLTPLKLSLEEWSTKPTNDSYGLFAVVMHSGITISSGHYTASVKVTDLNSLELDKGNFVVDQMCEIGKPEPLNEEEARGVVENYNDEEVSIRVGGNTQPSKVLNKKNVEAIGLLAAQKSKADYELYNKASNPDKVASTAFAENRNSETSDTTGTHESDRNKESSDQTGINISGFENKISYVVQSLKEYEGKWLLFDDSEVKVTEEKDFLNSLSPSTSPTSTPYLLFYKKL
USP1 (construct USP1 (I-785, GG670, 671AA)/UAF1 (I-677)-Flag), sequence (Q8TAF3 whole entry partner): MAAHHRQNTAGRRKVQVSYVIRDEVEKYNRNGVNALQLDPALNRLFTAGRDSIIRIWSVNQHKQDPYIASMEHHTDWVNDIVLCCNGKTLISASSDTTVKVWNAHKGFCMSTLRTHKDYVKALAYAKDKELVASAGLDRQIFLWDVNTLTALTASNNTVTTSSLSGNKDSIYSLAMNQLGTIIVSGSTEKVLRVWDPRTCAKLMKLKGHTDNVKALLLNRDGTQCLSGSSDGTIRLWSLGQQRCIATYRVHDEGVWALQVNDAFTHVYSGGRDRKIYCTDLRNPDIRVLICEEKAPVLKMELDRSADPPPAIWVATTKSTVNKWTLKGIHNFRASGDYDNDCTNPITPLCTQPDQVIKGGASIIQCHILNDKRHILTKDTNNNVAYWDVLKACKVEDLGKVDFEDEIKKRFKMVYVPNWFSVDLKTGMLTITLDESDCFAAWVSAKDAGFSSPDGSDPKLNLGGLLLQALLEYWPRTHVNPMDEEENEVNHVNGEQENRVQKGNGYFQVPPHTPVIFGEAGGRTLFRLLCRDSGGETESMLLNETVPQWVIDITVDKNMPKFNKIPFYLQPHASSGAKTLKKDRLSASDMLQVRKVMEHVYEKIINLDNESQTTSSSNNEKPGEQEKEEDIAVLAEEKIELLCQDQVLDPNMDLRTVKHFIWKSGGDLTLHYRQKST

SMILES	IC50
CC(C)c1ccccc1-c1ncc2[nH]c(=O)n(Cc3ccc(-c4ncc(C5CCN(C)CC5)n4C)cc3)c2n1 [Compound I-446, 2-(2-isopropylphenyl)-9-(4-(1-methyl-5-(1-methylpiperidin-4-yl)-1H-imidazol-2-yl)benzyl)-7,9-dihydro-8H-purin-8-one]	< 50 nM
CC(C)c1ccccc1-c1ncc2[nH]c(=O)n(Cc3ccc(-c4nc(C(F)(F)F)cn4C4CN(C)C4)cc3)c2n1 [Compound I-447, 2-(2-isopropylphenyl)-9-(4-(1-(1-methylazetidin-3-yl)-4-(trifluoromethyl)-1H-imidazol-2-yl)benzyl)-7,9-dihydro-8H-purin-8-one]	< 50 nM
CC(C)c1ccccc1-c1ncc2c(n1)n(Cc1ccc(-c3nc(C(F)(F)F)cn3C3CN(C)C3)cc1)c(=O)n2C [Compound I-448, 2-(2-isopropylphenyl)-7-methyl-9-(4-(1-(1-methylazetidin-3-yl)-4-(trifluoromethyl)-1H-imidazol-2-yl)benzyl)-7,9-dihydro-8H-purin-8-one]	< 50 nM
CC(C)c1ccccc1-c1ncc2c(n1)n(CC1CCN(S(=O)(=O)c3cccnc3)CC1)c(=O)n2C [Compound I-449, 2-(2-isopropylphenyl)-7-methyl-9-((1-(pyridin-3-ylsulfonyl)piperidin-4-yl)methyl)-7,9-dihydro-8H-purin-8-one]	> 2000 nM
CC(C)c1ccccc1-c1ncc2c(n1)n(CC1CCN(S(=O)(=O)C(C)C)CC1)c(=O)n2C [Compound I-450, 2-(2-isopropylphenyl)-9-((1-(isopropylsulfonyl)piperidin-4-yl)methyl)-7-methyl-7,9-dihydro-8H-purin-8-one]	50 to 200 nM
CC(C)c1ccccc1-c1ncc2c(n1)n(CC1CCN(S(=O)(=O)c3nccn3C)CC1)c(=O)n2C [Compound I-451, 2-(2-isopropylphenyl)-7-methyl-9-((1-((1-methyl-1H-imidazol-2-yl)sulfonyl)piperidin-4-yl)methyl)-7,9-dihydro-8H-purin-8-one]	200 to 2000 nM
CC(C)c1ccccc1-c1ncc2[nH]c(=O)n(C3CCC34CN(S(=O)(=O)C(C)C)C4)c2n1 (stereo not drawn) [Compound I-452, 2-(2-isopropylphenyl)-9-(2-(isopropylsulfonyl)-2-azaspiro[3.3]heptan-5-yl)-7,9-dihydro-8H-purin-8-one]	200 to 2000 nM
CC(C)c1ccccc1-c1ncc2c(n1)n(Cc1ccc(NS(=O)(=O)c3ccn(C)n3)cc1)c(=O)n2C [Compound I-453, N-(4-((2-(2-isopropylphenyl)-7-methyl-8-oxo-7,8-dihydro-9H-purin-9-yl)methyl)phenyl)-1-methyl-1H-pyrazole-3-sulfonamide]	> 2000 nM
CC(C)c1ccccc1-c1ncc2c(n1)n(Cc1ccc(NS(=O)(=O)c3nccn3C)cc1)c(=O)n2C [Compound I-454, N-(4-((2-(2-isopropylphenyl)-7-methyl-8-oxo-7,8-dihydro-9H-purin-9-yl)methyl)phenyl)-1-methyl-1H-imidazole-2-sulfonamide]	200 to 2000 nM
Cc1nc(S(=O)(=O)Nc2ccc(Cn3c(=O)n(C)c4cnc(-c5ccccc5C(C)C)nc43)cc2)cn1C [Compound I-455, N-(4-((2-(2-isopropylphenyl)-7-methyl-8-oxo-7,8-dihydro-9H-purin-9-yl)methyl)phenyl)-1,2-dimethyl-lH-imidazole-4-sulfonamide]	> 2000 nM
CC(C)c1ccccc1-c1ncc2c(n1)n(Cc1ccc(N(C)S(=O)(=O)c3ccn(C)n3)cc1)c(=O)n2C [Compound I-456, N-(4-((2-(2-isopropylphenyl)-7-methyl-8-oxo-7,8-dihydro-9H-purin-9-yl)methyl)phenyl)-N,1-dimethyl-1H-pyrazole-3-sulfonamide]	50 to 200 nM
CC(C)c1ccccc1-c1ncc2c(n1)n(Cc1ccc(N(C)S(=O)(=O)c3nccn3C)cc1)c(=O)n2C [Compound I-457, N-(4-((2-(2-isopropylphenyl)-7-methyl-8-oxo-7,8-dihydro-9H-purin-9-yl)methyl)phenyl)-N,1-dimethyl-1H-imidazole-2-sulfonamide]	50 to 200 nM
Cc1nc(S(=O)(=O)N(C)c2ccc(Cn3c(=O)n(C)c4cnc(-c5ccccc5C(C)C)nc43)cc2)cn1C [Compound I-458, N-(4-((2-(2-isopropylphenyl)-7-methyl-8-oxo-7,8-dihydro-9H-purin-9-yl)methyl)phenyl)-N,1,2-trimethyl-1H-imidazole-4-sulfonamide]	200 to 2000 nM
CC(C)c1ccccc1-c1ncc2c(n1)n(Cc1ccc(N(C)S(C)(=O)=O)cc1)c(=O)n2C [Compound I-459, N-(4-((2-(2-isopropylphenyl)-7-methyl-8-oxo-7,8-dihydro-9H-purin-9-yl)methyl)phenyl)-N-methylmethanesulfonamide]	200 to 2000 nM
CC(C)c1ccccc1-c1ncc2[nH]c(=O)n(CC3(F)CCN(S(=O)(=O)C4CC4)CC3)c2n1 [Compound I-460, 9-((1-(cyclopropylsulfonyl)-4-fluoropiperidin-4-yl)methyl)-2-(2-isopropylphenyl)-7,9-dihydro-8H-purin-8-one]	200 to 2000 nM
CC(C)c1ccccc1-c1ncc2[nH]c(=O)n(CC3CCN(S(=O)(=O)C4CC4)CC3)c2n1 [Compound I-461, 9-((1-(cyclopropylsulfonyl)piperidin-4-yl)methyl)-2-(2-isopropylphenyl)-7,9-dihydro-8H-purin-8-one]	50 to 200 nM
CC(C)C(=O)N1CCC(Cn2c(=O)n(C)c3cnc(-c4ccccc4C(C)C)nc32)CC1 [Compound I-462, 9-((1-isobutyrylpiperidin-4-yl)methyl)-2-(2-isopropylphenyl)-7-methyl-7,9-dihydro-8H-purin-8-one]	> 2000 nM
CC(=O)N1CCC(c2ccn(-c3ccc(Cn4c(=O)[nH]c5cnc(-c6ccccc6C(C)C)nc54)cc3)n2)CC1 [Compound I-463, 9-(4-(3-(1-acetylpiperidin-4-yl)-1H-pyrazol-1-yl)benzyl)-2-(2-isopropylphenyl)-7,9-dihydro-8H-purin-8-one]	< 50 nM
CC(=O)N1CCC(c2ccn(-c3ccc(Cn4c(=O)[nH]c5cnc(-c6cccc(F)c6C(C)C)nc54)cc3)n2)CC1 [Compound I-464, 9-(4-(3-(1-acetylpiperidin-4-yl)-1H-pyrazol-1-yl)benzyl)-2-(3-fluoro-2-isopropylphenyl)-7,9-dihydro-8H-purin-8-one]	50 to 200 nM
CC(=O)N1CCC(c2ccn(-c3ccc(Cn4c(=O)[nH]c5cnc(-c6cccnc6C(C)C)nc54)cc3)n2)CC1 [Compound I-465, 9-(4-(3-(1-acetylpiperidin-4-yl)-1H-pyrazol-1-yl)benzyl)-2-(2-isopropylpyridin-3-yl)-7,9-dihydro-8H-purin-8-one]	200 to 2000 nM
CC(=O)N1CCC(c2ccn(-c3ccc(Cn4c(=O)[nH]c5cnc(-c6cccnc6OCC(F)(F)F)nc54)cc3)n2)CC1 [Compound I-466, 9-(4-(3-(1-acetylpiperidin-4-yl)-1H-pyrazol-1-yl)benzyl)-2-(2-(2,2,2-trifluoroethoxy)pyridin-3-yl)-7,9-dihydro-8H-purin-8-one]	200 to 2000 nM
CC(=O)N1CCC(c2ccn(-c3ccc(Cn4c(=O)[nH]c5cnc(-c6ccccc6C(C)C)nc54)cc3)n2)C1 (stereo not drawn) [Compound I-467, 9-(4-(3-(1-acetylpyrrolidin-3-yl)-1H-pyrazol-1-yl)benzyl)-2-(2-isopropylphenyl)-7,9-dihydro-8H-purin-8-one]	50 to 200 nM
CC(=O)N1CCCC(c2ccn(-c3ccc(Cn4c(=O)[nH]c5cnc(-c6ccccc6C(C)C)nc54)cc3)n2)C1 (stereo not drawn) [Compound I-468, 9-(4-(3-(1-acetylpiperidin-3-yl)-1H-pyrazol-1-yl)benzyl)-2-(2-isopropylphenyl)-7,9-dihydro-8H-purin-8-one]	< 50 nM
Cc1cc(C(=O)Nc2ccc(Cn3c(=O)n(C)c4cnc(-c5ccccc5C(C)C)nc43)cc2)n(C)n1 [Compound I-469, N-(4-((2-(2-isopropylphenyl)-7-methyl-8-oxo-7,8-dihydro-9H-purin-9-yl)methyl)phenyl)-1,3-dimethyl-1H-pyrazole-5-carboxamide]	200 to 2000 nM
Cc1cc(C(=O)N(C)c2ccc(Cn3c(=O)n(C)c4cnc(-c5ccccc5C(C)C)nc43)cc2)n[nH]1 [Compound I-470, N-(4-((2-(2-isopropylphenyl)-7-methyl-8-oxo-7,8-dihydro-9H-purin-9-yl)methyl)phenyl)-N,5-dimethyl-1H-pyrazole-3-carboxamide]	> 2000 nM
Cc1cc(C(=O)N(C)c2ccc(Cn3c(=O)n(C)c4cnc(-c5ccccc5C(C)C)nc43)cc2)n(C)n1 [Compound I-471, N-(4-((2-(2-isopropylphenyl)-7-methyl-8-oxo-7,8-dihydro-9H-purin-9-yl)methyl)phenyl)-N,1,3-trimethyl-1H-pyrazole-5-carboxamide]	> 2000 nM
CC(=O)N1CCC(c2cn(C)c(-c3ccc(Cn4c(=O)[nH]c5cnc(-c6ccccc6C(C)C)nc54)cc3)n2)CC1 [Compound I-472, 9-(4-(4-(1-acetylpiperidin-4-yl)-1-methyl-1H-imidazol-2-yl)benzyl)-2-(2-isopropylphenyl)-7,9-dihydro-8H-purin-8-one]	< 50 nM
CC(=O)N1CCC(c2cnc(-c3ccc(Cn4c(=O)[nH]c5cnc(-c6ccccc6C(C)C)nc54)cc3)n2C)CC1 [Compound I-473, 9-(4-(5-(1-acetylpiperidin-4-yl)-1-methyl-lH-imidazol-2-yl)benzyl)-2-(2-isopropylphenyl)-7,9-dihydro-8H-purin-8-one]	< 50 nM
CC(=O)N1CCC(c2ccn(-c3ccc(Cn4c(=O)[nH]c5cnc(-c6c(F)cccc6C(C)C)nc54)cc3)n2)CC1 [Compound I-474, 9-(4-(3-(1-acetylpiperidin-4-yl)-1H-pyrazol-1-yl)benzyl)-2-(2-fluoro-6-isopropylphenyl)-7,9-dihydro-8H-purin-8-one]	< 50 nM
CC(C)C(=O)N1CCC(F)(Cn2c(=O)[nH]c3cnc(-c4ccccc4C(C)C)nc32)CC1 [Compound I-475, 9-((4-fluoro-1-isobutyrylpiperidin-4-yl)methyl)-2-(2-isopropylphenyl)-7,9-dihydro-8H-purin-8-one]	> 2000 nM
